Reference: patent US6943183B2 (Pfizer Inc, priority 2000, dated 2005)

Biological target: T1, SF9 affinity purified rat FPT (Rattus norvegicus, UniProt Q02293+Q04631)
T1 construct: made in house; host or cells: Sf9 insect cells
Experiment: PFT (FPT) inhibitory activity assay, radiolabeled farnesyl pyrophosphate and biotinyl peptide, streptavidin beads
Format: biochemical
Conditions: HEPES buffer pH 7.4, 30° C., 30 minutes; read-out: FTase IC50
In short: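 Rat FPT expressed in SF9 cells was incubated 30 minutes at 30° C. with compound (in 10% DMSO), radiolabeled farnesyl pyrophosphate and biotinylated peptide. Buffer: HEPES pH 7.4, ZnCl2 20 μM, MgCl2 and DTT 5 mM each, 0.1% PEG 8000, 5 mM potassium phosphate (also run without phosphate). Product captured on streptavidin beads in magnesium acetate/H3PO4 stop buffer.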

| Structure (SMILES) | IC50 [nM] |
| --- | --- |
| CC[C@H](C)CNC(=O)c1cccc(S(=O)(=O)Cc2c(O[C@H](Cn3ccnc3)c3ccccc3)ccc3c2CCCC3=O)c1 [Compound 248] | 0.2 |
| O=C(NCc1ccco1)c1ccccc1SCc1c(O[C@H](Cn2ccnc2)c2ccccc2)ccc2c1CCCC2=O [Compound 240, N-(2-Furylmethyl)-2-{[(2-{[(1S)-2-(1H-imidazol-1-yl)-1-phenylethyl]oxy}-5-oxo-5,6,7,8-tetrahydro-1-naphthalenyl)methyl]sulfanyl}benzamide] | 0.2 |
| O=C(O)CCNC(=O)c1ccccc1SCc1c(O[C@H](Cn2ccnc2)c2ccccc2)ccc2c1CCCC2=O [Compound 169, N-2-{[(2-{[(1S)-2-(1H-Imidazol-1-yl)-1-phenylethyl]oxy}-5-oxo-5,6,7,8-tetrahydro-1-naphthalenyl)methyl]sulfanyl}benzoyl-β-alanine] | 7 |
| O=C1CCCc2c1ccc(O[C@H](Cn1ccnc1)c1ccccc1)c2-c1ccsc1 [Compound 35] | 15 |
| CSCC[C@H](NC(=O)OC(C)(C)C)C(=O)NCc1c(O[C@H](Cn2ccnc2)c2ccccc2)ccc2c1CCCC2=O [Compound 42j, ((S)-1-{[2-((S)-2-Imidazol-1-yl-1-phenyl-ethoxy)-5-oxo-5,6,7,8-tetrahydro-napthalen-1-ylmethyl]-carbamoyl}-3-methylsulfanyl-propyl)-carbamic acid tert-butyl ester] | 4.4 |
| CCOC(=O)C(C)NC(=O)c1ccccc1SCc1c(O[C@H](Cn2ccnc2)c2ccccc2)ccc2c1CCCC2=O (stereo partly drawn) [Compound 186, Ethyl 2-[(2-{[(2-{[(1S)-2-(1H-Imidazol-1-yl)-1-phenylethyl]oxy}-5-oxo-5,6,7,8-tetrahydro-1-naphthalenyl)methyl]sulfanyl}benzoyl)amino]propanoate] | 4 |
| O=C(O)CCNC(=O)c1cccc(SCc2c(O[C@H](Cn3ccnc3)c3ccccc3)ccc3c2CCCC3=O)c1 [Compound 171, N-3-{[(2-{[(1S)-2-(1H-Imidazol-1-yl)-1-phenylethyl]oxy}-5-oxo-5,6,7,8-tetrahydro-1-naphthalenyl)methyl]sulfanyl}benzoyl-β-alanine] | 6 |
| CNC(=O)c1ccccc1SCc1c(O[C@H](Cn2ccnc2)c2ccccc2)ccc2c1CCCC2=O [Compound 193, 2-{[(2-{[(1S)-2-(1H-Imidazol-1-yl)-1-phenylethyl]oxy}-5-oxo-5,6,7,8-tetrahydro-1-naphthalenyl)methyl]sulfanyl}-N-methylbenzamide] | 5 |
| CCOC(=O)C(C)NC(=O)c1ccccc1S(=O)(=O)Cc1c(O[C@H](Cn2ccnc2)c2ccccc2)ccc2c1CCCC2=O (stereo partly drawn) [Compound 185, Ethyl 2-[(2-{[(2-{[(1S)-2-(1H-Imidazol-1-yl)-1-phenylethyl]oxy}-5-oxo-5,6,7,8-tetrahydro-1-naphthalenyl)methyl]sulfonyl}benzoyl)amino]propanoate] | 4 |
| Cc1nccn1CC(Oc1ccc2c(c1CCc1ccccc1)CCCC2=O)c1ccccc1 (racemic) [Compound 63o, (±)-6-[2-(2-Methyl-imidazol-yl)-1-phenyl-ethoxy]-5-phenethyl-3,4-dihydro-2H-naphthalen-1-one] | 4 |
| CNC(=O)c1ccc(S(=O)(=O)Cc2c(O[C@H](Cn3ccnc3)c3ccccc3)ccc3c2CCCC3=O)cc1 [Compound 189, 4-{[(2-{[(1S)-2-(1H-2-Imidazol-1-yl)-1-phenylethyl]oxy}-5-oxo-5,6,7,8-tetrahydro-1-naphthalenyl)methyl]sulfonyl}-N-methylbenzamide] | 10 |
| O=C(NCc1ccco1)c1cccc(S(=O)(=O)Cc2c(O[C@H](Cn3ccnc3)c3ccccc3)ccc3c2CCCC3=O)c1 [Compound 230, N-(2-Furylmethyl)-3-{[(2-{[(1S)-2-(1H-imidazol-1-yl)-1-phenylethyl]oxy}-5-oxo-5,6,7,8-tetrahydro-1-naphthalenyl)methyl]sulfonyl}benzamide] | 0.2 |
| COC(=O)c1ccc(CCc2c(O[C@H](Cn3ccnc3)c3ccccc3)ccc3c2CCCC3=O)cc1 [Compound 27, Methyl 4-(2-[2-((1S)-2-imidazolyl-1-phenylethoxy)-5-oxo-6,7,8-trihydronaphthyl]ethyl}benzoate] | 10 |
| COC(=O)c1cccc(OCc2c(O[C@H](Cn3ccnc3)c3ccccc3)ccc3c2CCCC3=O)c1 [Compound 88, Methyl 3-{[2-((1S)-2-imidazolyl-1-phenylethoxy)-5-oxo-6,7,8-trihydronaphthyl]methoxy}benzoate] | 7 |
| COCCNC(=O)c1cccc(S(=O)(=O)Cc2c(O[C@H](Cn3ccnc3)c3ccccc3)ccc3c2CCCC3=O)c1 [Compound 263, 3-{[(2-{[(1S)-2-(1H-Inimidazol-1-yl)-1-phenylethyl]oxy}-5-oxo-5,6,7,8-tetrahydro-1-naphthalenyl)methyl]sulfonyl}-N-(2-methoxyethyl)benzamide] | 0.2 |
| O=C(NCCO)c1cccc(SCc2c(O[C@H](Cn3ccnc3)c3ccccc3)ccc3c2CCCC3=O)c1 [Compound 172, N-(2-Hydroxyethyl)-3-{[(2-{[(1S)-2-(1H-imidazol-1-yl)-1-phenylethyl]oxy}-5-oxo-5,6,7,8-tetrahydro-1-naphthalenyl)methyl]sulfanyl}benzamide] | 5 |
| C[C@H](O)CNC(=O)c1cccc(SCc2c(O[C@H](Cn3ccnc3)c3ccccc3)ccc3c2CCCC3=O)c1 [Compound 197, N-[(2S)-2-Hydroxypropyl]-3-{[(2-{[(1S)-2-(1H-imidazol-1-yl)-1-phenylethyl]oxy}-5-oxo-5,6,7,8-tetrahydro-1-naphthalenyl)methyl]sulfanyl}benzamide] | 0.2 |

More lines, now with the values ahead:

| IC50 [nM] | Structure (SMILES) |
| --- | --- |
| 14 | Nc1c(O[C@H](Cn2ccnc2)c2ccccc2)ccc2c1CCCC2=O [Compound 37a, 5-Amino-6-((S)-2-imidazol-1-yl-1-phenyl-ethoxy)-3,4-dihydro-2H-naphthalen-1-one] |
| 5 | CCCc1c(O[C@H](Cn2ccnc2)c2ccccc2)ccc2c1CCCC2=O [Compound 53] |
| 5 | O=C1CCCc2c1ccc(O[C@H](Cn1ccnc1)c1ccccc1)c2CCc1cccc[n+]1[O-] [Compound 25, 6-((1S)-2-Imidazolyl-1-phenylethoxy)-5-[2-(1-oxy(2-pyridyl))ethyl]-2,3,4-trihydronaphthalen-1-one] |
| 0.2 | O=C1CCCc2c1ccc(O[C@H](Cn1ccnc1)c1ccccc1)c2CNc1ccccc1 [Compound 11] |
| 3.6 | CCCOCc1c(O[C@H](Cn2ccnc2)c2ccccc2)ccc2c1CCCC2=O [Compound 19b, 6-((S)-2-Imidazol-1-yl-1-phenyl-ethoxy)-5-propoxymethyl-3,4-dihydro-2H-naphthalen-1-one] |
| 12 | C=CCc1c(OC(Cn2ccnc2)c2ccccc2Cl)ccc2c1CCCC2=O (racemic) [Compound 59, (±)-6-[1-(2-Chlorophenyl)-2-imidazolylethoxy]-5-prop-2-enyl-2,3,4-trihydronaphthalen-1-one] |
| 25 | O=C(O)CCc1c(O[C@H](Cn2ccnc2)c2ccccc2)ccc2c1CCCC2=O [Compound 32, 3-[2-((1S)-2-Imidazolyl-1-phenylethoxy)-5-oxo-6,7,8-trihydronaphthyl]propanoic acid] |
| 0.4 | O=C1CCCc2c1ccc(O[C@H](Cn1ccnc1)c1cccnc1)c2CCc1ccccc1 (single isomer, unassigned) [Compound 63a] |
